Source: publication PMC6449406, “Classification of the human phox homology (PX) domains based on their phosphoinositide binding specificities” (Nature Communications, 2019)
Blank lines part the entries; values can stand above or below the molecule they belong to.

Assays:
SNX25 PX domain [1] = target: T1, SNX25 PX domain (Homo sapiens, UniProt Q9H3E2); assay: 1H-15N HSQC NMR titration; type: binding; conditions: pH 7.0, 100 mM NaCl, 298 K; secondary site (Lys734)
T1 construct: PX domain only, 15N-labelled, from GST fusion in E. coli
T1 sequence (Q9H3E2 506-628): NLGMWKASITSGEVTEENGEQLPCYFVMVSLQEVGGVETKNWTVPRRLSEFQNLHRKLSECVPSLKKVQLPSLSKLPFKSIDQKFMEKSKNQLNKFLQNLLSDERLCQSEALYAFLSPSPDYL

SNX1 = target: T2, SNX1 (Homo sapiens, UniProt Q13596); assay: biochemical; design: ITC, soluble phosphoinositide headgroup analogue titrated into purified PX domain, 1:1 fit; conditions: ITC, 20 uM PX domain in cell
T2 construct: PX domain only, N-terminal GST removed by thrombin, E. coli
Text: (§1) We next used isothermal titration calorimetry (ITC) to measure the binding of selected PX domains to soluble phosphoinositide headgroup analogues (Supplementary Figures 2, 3; Supplementary Table 4). These experiments quantitatively supported the results of the liposome pelleting assays for all of the PX domains tested. As an orthogonal method of quantitation, we used biolayer interferometry (BLItz) to measure the interactions of PX proteins with different phosphoinositide-containing membranes (Supplementary Figures 4, 5; Supplementary Table 5). In these experiments, liposomes containing a small amount of biotinylated lipids were coupled to streptavidin sensors, and dipped into solutions containing the PX domains at a single concentration of 20 μM. Again, the results of these liposome-binding experiments using BLItz correlated well with both ITC and liposome pelleting assays. The dissociation constants derived from BLItz analyses were generally in agreement with those from ITC and correlated well with the qualitative interactions observed in pelleting assays. As summarized in Supplementary Table 1, many previous reports have described interactions of human PX domain proteins with a variety of different phosphoinositide lipids, as well as other lipids such as phosphatidylserine (PS) and phosphatidic acid (PA) that may promote recruitment to various cellular organelles and membrane domains. Our aim was to perform parallel comparisons of as many human PX domains as possible, using qualitative and quantitative approaches to measure binding to both membrane mimetics and soluble phosphoinositide headgroups. […] Samples were subjected to ultracentrifugation followed by SDS-PAGE and Coomassie staining of the unbound supernatant (S) and bound pellet (P) fractions. b Water-soluble PtdIns3P and PtdIns(3,4)P2 headgroup analogues (500 μM) were titrated into the SGK3 PX domain (20 μM) and measured by ITC. […]

SNX25 PX domain [2] = target: T1, SNX25 PX domain; assay: biochemical; design: ITC, soluble phosphoinositide headgroup analogue titrated into purified PX domain, 1:1 fit; conditions: ITC, 20 uM PX domain in cell
Text: as §1

SNX2 = target: T3, SNX2 (Homo sapiens, UniProt O60749); assay: biochemical; design: ITC, soluble phosphoinositide headgroup analogue titrated into purified PX domain, 1:1 fit; conditions: ITC, 20 uM PX domain in cell
T3 construct: PX domain only, N-terminal GST removed by thrombin, E. coli
T3 sequence (O60749 140-269 limits assumed): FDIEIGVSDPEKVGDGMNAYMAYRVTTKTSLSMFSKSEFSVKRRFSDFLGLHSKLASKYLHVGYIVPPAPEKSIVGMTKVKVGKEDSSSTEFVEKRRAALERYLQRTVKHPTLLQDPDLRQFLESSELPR
Text: as §1

SNX23 = target: T4, SNX23 (Homo sapiens, UniProt Q96L93); assay: biochemical; design: ITC titration of soluble phosphoinositide headgroup analogue into PX domain, Kd
T4 construct: gene KIF16B; PX domain, GST removed
T4 sequence (Q96L93 1-1317): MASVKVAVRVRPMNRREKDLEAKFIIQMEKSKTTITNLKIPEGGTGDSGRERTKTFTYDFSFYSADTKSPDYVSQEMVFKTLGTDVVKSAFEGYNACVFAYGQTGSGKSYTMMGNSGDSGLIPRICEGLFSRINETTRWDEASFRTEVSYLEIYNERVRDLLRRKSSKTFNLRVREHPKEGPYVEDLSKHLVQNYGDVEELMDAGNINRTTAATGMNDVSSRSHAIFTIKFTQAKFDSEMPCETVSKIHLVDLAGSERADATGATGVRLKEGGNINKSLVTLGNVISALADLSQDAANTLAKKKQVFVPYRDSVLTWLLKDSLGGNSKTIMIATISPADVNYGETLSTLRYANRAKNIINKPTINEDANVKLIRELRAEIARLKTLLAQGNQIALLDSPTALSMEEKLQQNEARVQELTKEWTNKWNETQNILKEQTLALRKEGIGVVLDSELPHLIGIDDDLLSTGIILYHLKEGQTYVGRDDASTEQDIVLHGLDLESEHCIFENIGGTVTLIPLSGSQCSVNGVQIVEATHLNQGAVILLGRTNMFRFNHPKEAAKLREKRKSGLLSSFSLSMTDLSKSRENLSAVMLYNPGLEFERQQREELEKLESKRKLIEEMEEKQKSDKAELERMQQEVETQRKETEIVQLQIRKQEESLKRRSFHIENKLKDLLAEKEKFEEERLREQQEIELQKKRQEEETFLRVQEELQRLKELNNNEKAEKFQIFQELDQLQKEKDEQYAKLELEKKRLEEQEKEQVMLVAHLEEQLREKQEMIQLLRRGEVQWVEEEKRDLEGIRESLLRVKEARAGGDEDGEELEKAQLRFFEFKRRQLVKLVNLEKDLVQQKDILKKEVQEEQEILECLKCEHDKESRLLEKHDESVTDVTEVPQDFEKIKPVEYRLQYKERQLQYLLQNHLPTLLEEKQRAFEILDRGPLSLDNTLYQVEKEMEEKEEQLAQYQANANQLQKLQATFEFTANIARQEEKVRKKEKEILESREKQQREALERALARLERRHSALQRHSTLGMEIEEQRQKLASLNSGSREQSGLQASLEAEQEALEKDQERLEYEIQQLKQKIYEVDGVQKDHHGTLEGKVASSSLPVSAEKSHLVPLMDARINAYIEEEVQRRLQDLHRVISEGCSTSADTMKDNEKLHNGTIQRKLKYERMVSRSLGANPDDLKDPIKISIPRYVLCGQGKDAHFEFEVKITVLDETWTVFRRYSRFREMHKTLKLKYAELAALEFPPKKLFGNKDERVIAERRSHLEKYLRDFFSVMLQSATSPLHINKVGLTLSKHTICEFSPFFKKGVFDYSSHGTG
Text: We next used isothermal titration calorimetry (ITC) to measure the binding of selected PX domains to soluble phosphoinositide headgroup analogues (Supplementary Figures 2, 3; Supplementary Table 4). These experiments quantitatively supported the results of the liposome pelleting assays for all of the PX domains tested. As an orthogonal method of quantitation, we used biolayer interferometry (BLItz) to measure the interactions of PX proteins with different phosphoinositide-containing membranes (Supplementary Figures 4, 5; Supplementary Table 5). In these experiments, liposomes containing a small amount of biotinylated lipids were coupled to streptavidin sensors, and dipped into solutions containing the PX domains at a single concentration of 20 μM. Again, the results of these liposome-binding experiments using BLItz correlated well with both ITC and liposome pelleting assays. The dissociation constants derived from BLItz analyses were generally in agreement with those from ITC and correlated well with the qualitative interactions observed in pelleting assays. Supplementary Information Supplementary Table 1. Previously reported structures and PtdInsP-binding specificities of mammalian PX proteins. Supplementary Table 2. PX domain constructs used in this study. Supplementary Table 3. […] PX domain binding to phosphoinositides measured by ITC.

[3] = target: the molecule itself; assay: SEC; analytical gel filtration, Superdex 200 10/300, 50 mM Tris (pH 8.0), 100 mM NaCl, 2 mM DTT; 100 µl of SNX15 PX domain at 500 µM, 0.5 ml/min, 4 °C; mass from a calibration curve of standards

Molecule: CCCCCCCC(=O)OC[C@H](COP(=O)(O)O[C@H]1[C@H](O)[C@@H](O)[C@H](OP(=O)(O)O)[C@@H](OP(=O)(O)O)[C@H]1O)OC(=O)CCCCCCC [PtdIns(3,4)P2 headgroup analogue]
1H-15N HSQC NMR titration (SNX25 PX domain [1]): significant chemical shift perturbations were observed with di- and tri-phosphorylated phosphoinositides (PIP2 and PIP3)

Molecule: CCCCCCCC(=O)OC[C@H](COP(=O)(O)O[C@H]1[C@H](O)[C@@H](OP(=O)(O)O)[C@H](OP(=O)(O)O)[C@@H](OP(=O)(O)O)[C@H]1O)OC(=O)CCCCCCC [PtdIns(3,4,5)P3 headgroup analogue]
1H-15N HSQC NMR titration (SNX25 PX domain [1]): significant chemical shift perturbations were observed with di- and tri-phosphorylated phosphoinositides (PIP2 and PIP3)

Kd (SNX1): 42 µM
Kd (SNX25 PX domain [2]): 12.1 µM
Kd (SNX2): 35.8 µM
Kd (SNX23): 11.5 µM
Molecule: CCCCCCCC(=O)OC[C@H](COP(=O)(O)O[C@@H]1[C@H](O)[C@H](OP(=O)(O)O)[C@@H](O)[C@H](OP(=O)(O)O)[C@H]1O)OC(=O)CCCCCCC [PtdIns(3,5)P2 headgroup analogue]
1H-15N HSQC NMR titration (SNX25 PX domain [1]): significant chemical shift perturbations were observed with di- and tri-phosphorylated phosphoinositides (PIP2 and PIP3)

Molecule: CCCCCCCC(=O)OC[C@H](COP(=O)(O)O[C@@H]1[C@H](O)[C@H](O)[C@@H](OP(=O)(O)O)[C@H](OP(=O)(O)O)[C@H]1O)OC(=O)CCCCCCC [PtdIns(4,5)P2 headgroup analogue]
1H-15N HSQC NMR titration (SNX25 PX domain [1]): significant chemical shift perturbations were observed with di- and tri-phosphorylated phosphoinositides (PIP2 and PIP3)

B1: SNX15 PX domain (domain or fragment, human)
chain: MSRQAKDDFLRHYTVSDPRTHPKGYTEYKVTAQFISKKDPEDVKEVVVWKRYSDFRKLHGDLAYTHRNLFRRLEEFPAFPRAQVFGRFEASVIEERRKGAEDLLRFTVHIPALNNSPQLKEFFRGG
notes: source: E. coli BL21(DE3)/pLysS, purified (glutathione-Sepharose, thrombin cleavage, size exclusion chromatography); not shown: GST, N-terminal, cleaved
stoichiometry N [3]: 2
